Assays:
[1] = tested on: Salmonella typhimurium tester strain TA97a; assay: AMES testing (bacterial reverse mutation test, Salmonella/microsome assay), strain TA97a; assay type: cell-based; conditions: for increase in the number of revertants over the concurrent vehicle controls: strain TA97a; for mutagenicity (overall conclusion): strain TA97a in presence of metabolic activation, criterion 2-fold increase in revertants
Source text: (§1) The Ames assay is a rapid, reliable and economical method for screening compounds for potential genetic activity at the nucleotide level. A large database has been accumulated with this assay, confirming its ability to detect genetically active compounds of most chemical classes with around 80 to 90% sensitivity and specificity.
(§2) With the exception of strain TA102, these strains require biotin as well as histidine for growth. In strain TA102 the critical mutation in the histidine gene is located on a multicopy plasmid pAQ1. This strain is particularly sensitive to the activities of oxidative and cross-linking mutagens. The plasmid derivatives (TA98, TA100, TA97a and TA102) have increased sensitivity to certain mutagens as the pKM101 plasmid codes for an error-prone DNA repair system^(1,3).
(§3) When exposed to a mutagen, some of the bacteria in the treated population, through chemical interaction with the compound, undergo genetic changes which cause them to revert to a non-histidine-requiring state and thus grow in the absence of exogenous histidine. Different tester strains are used because each is mutated by particular chemical classes of compound. A compound that is mutagenic in one strain need not be so in another^(1,3).
(§4) Test item: INT 3, also known as 5-fluoro-2-methyl-3-(4,4,5,5-tetramethyl-1,3,2-dioxaborolan-2-yl)aniline. Vehicle: Di-methyl sulfoxide (DMSO) Purity/Content of drug: 97.95%. Molecular Structure:
(§5) Strains of Salmonella typhimurium used^(4,5,6): TA98, TA100, TA1535, TA97a and TA102. Metabolic activation system^(2): Liver S-9 mix from male rats, Aroclor 1254-pretreated. Per plate, 0.5 mL of 5% S-9 mix was added. Controls: Control treatments comprised additions at the same volume per plate (0.1 mL) as the test item solutions. Negative controls comprised treatments with the chosen vehicle.
(§6) Concentrations tested (Mutaqenicity Study): 50, 158, 501, 1582 and 5000 μg/plate (using all strains+/−S-9). […] Mutagenicity: Data from control treatments confirmed the correct strain and assay functioning, and the data were accepted as valid.
(§7) Acceptance criteria: The assay was considered valid as all the following criteria were met: • 1. Vehicle control counts fell within the normal ranges; • 2. The positive control chemicals induced increases in revertant numbers by 5- to 30-fold for different strains when compared to the concurrent vehicle controls confirming discrimination between different strains, and an active S-9 preparation.
(§8) Evaluation criteria: For valid data, the test item was considered mutagenic in this assay if a concentration related increase in revertant numbers of 2-fold (in strains TA98, TA100, TA1535 or TA97a) or 1.5-fold (in strain TA102) the concurrent vehicle control values was observed. […]

[2] = tested on: Salmonella typhimurium TA98, TA100, TA1535, TA97a and TA102; assay: AMES testing (bacterial reverse mutation test, Salmonella/microsome assay), all strains; assay type: cell-based
Source text: as §1, §2, §3, §4, §5, §6, §7, §8

Cc1c(N)cc(F)cc1B1OC(C)(C)C(C)(C)O1 [INT 3, 5-fluoro-2-methyl-3-(4,4,5,5-tetramethyl-1,3,2-dioxaborolan-2-yl)aniline]
increase in the number of revertants over the concurrent vehicle controls ([1]; Experiment 1, 5000 μg/plate, in the presence of metabolic activation (rat liver S-9)): 2.3 fold | increase in the number of revertants over the concurrent vehicle controls ([1]; Experiment 2, highest test concentration 5000 μg/plate, in presence of metabolic activation (rat liver S-9)): 1.8 fold | mutagenicity (overall conclusion) [1]: mutagenic potential | mutagenicity (overall conclusion) ([1]; listed as INT3): weak mutagenic potential | increase in revertant numbers over the concurrent vehicle controls, other strain treatments ([2]; any other strain treatments (TA98, TA100, TA1535, TA97a without S-9), 50-5000 μg/plate, +/- S-9): < 2 fold | cytotoxicity to tester strains ([2]; preliminary cytotoxicity and mutagenicity test, any strain, presence and absence of metabolic activation, up to 5000 μg/plate): did not indicate any cytotoxicity | increase in revertant numbers over the concurrent vehicle controls, strain TA102 ([2]; strain TA102, 50-5000 μg/plate, +/- S-9): < 1.5 fold | precipitation of test item ([2]; up to highest concentration (5000 μg/plate), presence and absence of metabolic activation, vehicle DMSO): did not precipitate

Source: patent publication US20260209185A1, “SYNTHESIS METHODS AND INTERMEDIATES FOR THE PRODUCTION OF REMIMBRUTINIB” (NOVARTIS AG, priority 2022, published 2026)
